How the values were obtained:
[1] = biological target: T1, Heat shock protein HSP 90-alpha (Homo sapiens, UniProt P07900)
Description: Inhibition of Hsp90alpha ATPase activity by malachite green ATP-ase assay

[2] = biological target: T1, Heat shock protein HSP 90-alpha; remark: listed apart in the source
Description: Binding affinity to Hsp90alpha N-terminal ATPase domain by TR-FRET assay based competitive binding assay

SK-BR-3 = assay: Cytotoxicity against human SKBR3 cells; format: functional, cell-based
[3] = biological target: T1, Heat shock protein HSP 90-alpha; assay: Inhibition of Hsp90alpha in human H1299 cells assessed as HIF-1alpha degradation by luciferase reporter assay; format: cell-based
[4] = biological target: T1, Heat shock protein HSP 90-alpha; assay: Inhibition of Hsp90alpha in human SKBR3 cells assessed as ErbB2 degradation by Western blot analysis; format: cell-based, SK-BR-3
[5] = biological target: T1, Heat shock protein HSP 90-alpha; assay: Inhibition of Hsp90alpha in human SKBR3 cells assessed as up-regulation of HSP70 protein by Western blot analysis; format: cell-based, SK-BR-3

Compound	IC50 [1] [nM]	IC50 [2] [nM]	other results
O=c1[nH]c2ccccc2n1-c1cc(Cl)c(O)cc1O	15200	54	
O=c1[nH]c2ccccc2n1-c1cc(C(F)(F)F)ccc1O	127000	2320	
O=c1[nH]c2ccccc2n1-c1cc(O)c(Cl)cc1O	200000	2530	
O=c1[nH]c2cc(C(F)(F)F)ccc2n1-c1cc(C(F)(F)F)ccc1O	81000	3320	
CCNC(=O)NCc1ccc2c(c1)[nH]c(=O)n2-c1cc(Cl)c(O)cc1O	14200	33	
CS(=O)(=O)NCc1ccc2c(c1)[nH]c(=O)n2-c1cc(Cl)c(O)cc1O	25200	50	
O=C(NCc1ccc2c(c1)[nH]c(=O)n2-c1cc(Cl)c(O)cc1O)c1ccccc1	22900	72	
O=c1[nH]c2ccccc2n1-c1ccc(O)cc1O	85000		
CCNC(=O)c1n[nH]c(-c2cc(Cl)c(O)cc2O)c1-c1ccc(OC)cc1			EC50 (SK-BR-3): 250 nM
O=c1[nH]c2ccccc2n1-c1cc(O)ccc1O	200000	34900	
O=c1[nH]c2cc(CNS(=O)(=O)c3ccccc3)ccc2n1-c1cc(Cl)c(O)cc1O	3420	27	
C=CCNC1=C2C[C@@H](C)C[C@H](OC)[C@H](O)[C@@H](C)/C=C(\C)[C@H](OC(N)=O)[C@@H](OC)/C=C\C=C(/C)C(=O)NC(=CC1=O)C2=O [TANESPIMYCIN]			EC50 (SK-BR-3): 25 nM
O=C(NCc1ccc2c(c1)[nH]c(=O)n2-c1cc(Cl)c(O)cc1O)Nc1ccccc1	15400	60	
O=c1[nH]c2cc(CNS(=O)(=O)c3ccc4ccccc4c3)ccc2n1-c1cc(Cl)c(O)cc1O	1140	47	
CC(=O)NCc1ccc2c(c1)[nH]c(=O)n2-c1cc(Cl)c(O)cc1O	24800	40	
O=c1[nH]c2cc(CNS(=O)(=O)c3cccc4ccccc34)ccc2n1-c1cc(Cl)c(O)cc1O	550		EC50 [3]: 190 nM; EC50 (SK-BR-3): 12 nM; EC50 [4]: < 100 nM; EC50 [5]: 60 nM
